Test results reported in patent US20230050588A1, “ANTIOXIDANT OR SKIN STRESS INHIBITOR” (Shiseido Company, Ltd., priority 2020, published 2023).

Key:
Format in all cases: cell-based
Design in all cases: key: ○ corresponds to genes whose expression is significantly changed; x corresponds to genes whose expression is not changed
[1] = test system: AhR; test: Microarray gene expression in keratinocytes UV-irradiated through wavelength conversion substance: AhR; conditions: Normal Human Epidermal Keratinocytes; UV 100 mJ/cm^2 through substance solution without direct contact; 24 hours after irradiation; expression of AhR is reduced
Procedure: (§1) The wavelength conversion substances of (1) and (2) were dissolved in water to prepare solutions at concentrations of 1% and 5%.
(§2) The wavelength conversion substances of (3) and (4) were dispersed in alcohol to prepare 5% and 10% dispersions.
(§3) 1. Normal Human Epidermal Keratinocytes (PromoCell) were used. A cell suspension (1 mL) stored with liquid nitrogen was placed in a hot water bath (37° C.) and thawed until small ice pellets remained, and then diluted with 9 mL of warm KGM medium. 2. The diluted suspension was gently mixed and transferred to a T75 flask, and incubated overnight at 37° C. 3. On the following day, the medium was exchanged with 10 mL of fresh medium. 4. The medium was periodically exchanged (once every 2 to 3 days), while continuing growth of the cells. During this time, a microscope was used to observe the cells and to confirm that the cells had proliferated with the proper form. 5. Once the cells reached approximately 80% confluence, they were subcultured. 6. Subculturing of the cells was carried out by rinsing and aspirating once in 10 mL of warm PBS. 7. 5 mL of warm trypsin was added to the T75 flask to cover the bottom of the flask with the trypsin solution, and the mixture was aspirated after standing for 1 minute at room temperature. 8. The flask was set in an oven at 37° C. for 5 minutes (maximum) for keratinocytes. […]

[2] = test system: AHRR; test: Microarray gene expression in keratinocytes UV-irradiated through wavelength conversion substance: AHRR; conditions: Normal Human Epidermal Keratinocytes; UV 100 mJ/cm^2 through substance solution without direct contact; 24 hours after irradiation
Procedure: as §1, §2, §3

[3] = test system: HMOX1; test: Microarray gene expression in keratinocytes UV-irradiated through wavelength conversion substance: HMOX1; conditions: Normal Human Epidermal Keratinocytes; UV 100 mJ/cm^2 through substance solution without direct contact; 24 hours after irradiation
Procedure: as §1, §2, §3

Compound: Cc1cc2nc3c(=O)[nH]c(=O)nc-3n(C[C@H](O)[C@H](O)[C@H](O)CO)c2cc1C [Vitamin B2, Riboflavin]
- AhR gene expression change (microarray) [1]: ○
- AHRR gene expression change (microarray) [2]: ○
- HMOX1 gene expression change (microarray) [3]: x
